This test relates to human platelet rich plasma. Kind of test: Platelet aggregation assay (platelet rich plasma, PRP). It is filed as cell-based. To be noted: concentration which inhibits platelet aggregation by 50% relative to control, ester prodrugs preincubated with porcine liver esterase, ADP-induced. The protocol:
Platelet Aggregation Assay: Venous blood was obtained from the arm of a healthy human donor who was drug-free and aspirin-free for at least two weeks prior to blood collection. Blood was collected into 10 mL citrated Vacutainer tubes. The blood was centrifuged for 15 minutes at 150×g at room temperature, and platelet-rich plasma (PRP) was removed. The remaining blood was centrifuged for 15 minutes at 1500×g at room temperature, and platelet-poor plasma (PPP) was removed. Samples were assayed on a aggregometer (PAP-4 Platelet Aggregation Profiler), using PPP as the blank (100% transmittance). 200 μL of PRP was added to each micro test tube, and transmittance was set to 0%. 20 μL of various agonists (ADP, collagen, arachidonate, epinephrine, thrombin) were added to each tube, and the aggregation profiles were plotted (% transmittance versus time). The results are expressed as % inhibition of agonist-induced platelet aggregation. […] Percent inhibition is calculated using percent aggregation in the presence of the test compound divided by percent aggregation of control, times 100. […]
Platelet Aggregation Assay; Venous blood was obtained from the arm of a healthy human donor who was drug-free and aspirin-free for at least two weeks prior to blood collection. […] The results are expressed as % inhibition of agonist-induced platelet aggregation. […]

Bounds are passed on as bounds.

One may read the IC50 as the point on the concentration scale where inhibition reaches its midpoint.

As to `CCNC(=N)c1ccc(C2=NOC(CC(=O)NCCC(=O)O)C2)cc1` (racemic) [Example 23, 5(R,S)-3-[3-(4-N-ethylamidinophenyl)isoxazolin-5-ylacetyl]aminopropanoic acid], the half-maximal inhibitory concentration (IC50) was less than 10 µM.

The record behind these values is patent US5446056A, “Isoxazoline compounds useful as fibrinogen receptor antagonists” (The Du Pont Merck Pharmaceutical Company, priority 1994, dated 1995).
